Source: patent US20190358181A1, “METHODS FOR AUTISM SPECTRUM DISORDER PHARMACOTHERAPY” (priority 2017, published 2019)

Tested on: 610 metabolites from 63 biochemical pathways
Assay: Targeted broad-spectrum plasma metabolomic analysis (LC-MS/MS), paired pre-infusion vs post-infusion (2-days and 6-weeks)
Type: in vivo, human
Description: Targeted, broad-spectrum, plasma metabolomic analysis of 610 metabolites from 63 biochemical pathways was performed by high performance liquid chromatography and tandem mass spectrometry (LC-MS/MS) on the samples collected from patients in Example 1. Venous blood was collected between the hours of 8 am and 5 pm, at least 3 hours after the last meal, into lithium-heparin vacutainer tubes (BD #367884). Plasma was separated by centrifugation at 900 g×10 minutes at room temperature within one hour of collection. The resulting fresh lithium-heparin plasma was transferred to labeled 1.2 ml or 2.0 ml externally threaded cryotubes with a minimum headspace air gap for storage at −80° C. for analysis. Samples were analyzed on an AB SCIEX QTRAP 5500 triple quadrupole mass spectrometer equipped with a Turbo V electrospray ionization (ESI) source, Shimadzu LC-20A UHPLC system, and a PAL CTC autosampler. Typically, 90 μl of plasma was thawed on ice and transferred to a 1.7 ml Eppendorf tube. Five (5.0) μl of a cocktail containing 25-35 commercial stable isotope internal standards, and 5.0 μl of 57 stable isotope internal standards that were custom-synthesized in E. coli NCM3722, Caenorhabditis elegans N2, and Komagataella phaffii (ATCC 76273; formerly known as Pichia pastoris) by metabolic labeling with 13C-glucose and 13C-bicarbonate, were added, mixed, and incubated for 10 min at 20° C. to permit small molecules and vitamins in the internal standards to associate with plasma binding proteins. Macromolecules (protein, DNA, RNA, glycans, etc.) were precipitated by extraction with 4 volumes (400 μl) of cold (−20° C.), acetonitrile:methanol (50:50) (LCMS grade, Cat #LC015-2.5 and GC230-4, Burdick & Jackson, Honeywell), vortexed vigorously, and incubated on crushed ice for 10 min, then removed by centrifugation at 16,000 g×10 min at 4° C. The supernatants containing the extracted metabolites and internal standards in the resulting 40:40:20 solvent mix of acetonitrile:methanol:water were transferred to labeled cryotubes and stored at −80° C. for LCMS/MS analysis.
LC-MS/MS analysis was performed by scheduled multiple reaction monitoring (sMRM) under Analyst v1.6.2 software control in both negative and positive mode with rapid polarity switching (50 ms). Nitrogen was used for curtain gas (set to 30), collision gas (set to high), ion source gas 1 and 2 (set to 35). The source temperature was 500° C. Spray voltage was set to −4500 V in negative mode and 5500 V in positive mode. The values for Q1 and Q3 mass-to-charge ratios (m/z), declustering potential (DP), entrance potential (EP), collision energy (CE), and collision cell exit potential (CXP) were determined and optimized for each MRM for each metabolite. Ten microliters of extract was injected by PAL CTC autosampler via a 10 μl stainless steel loop into a 250 mm×2.0 mm, 4 μm polymer based NH2 HPLC column (Asahipak NH2P-40 2E, Showa Denko America, Inc., NY) held at 25° C. for chromatographic separation. The mobile phase was solvent A: 95% water with 20 mM (NH4)2CO3 (Sigma, Fluka Cat #74415-250G-F), 5% acetonitrile, and 38 mM NH4OH (Sigma, Fluka Cat #17837-100ML), final pH 9.75; solvent B: 100% acetonitrile. Separation was achieved using the following gradient: 0-3.5 min: 95% B, 3.6-8 min: 85% B, 8.1-13 min: 75% B, 13.5-35 min: 0% B, 36-46 min: 95% B, 46.1 min: end. The flow rate was 200 μl/min. Pump pressures ranged from 920-2600 psi over the course of the gradient. All the samples were kept at 4° C. during analysis. The chromatographic peaks were identified using MultiQuant (v3.0, Sciex), confirmed by manual inspection, and the peak areas integrated. […]

[1] = Tyrosine and Phenylalanine Metabolism, 2-days
[2] = Tyrosine and Phenylalanine Metabolism, 6-weeks
[3] = Vitamin C (Ascorbate) Metabolism, 6-weeks
[4] = Vitamin D (Calciferol) Metabolism, 2-days
[5] = cis-aconitic acid, plasma, 6-weeks
[6] = lsovalerylglycine, plasma, 6-weeks
[7] = p-Hydroxyphenylacetic acid, plasma, 6-weeks
[8] = plasma, 2-days after infusion vs pre-infusion, Amino Acid Metabolism (not otherwise covered)
[9] = plasma, 2-days after infusion vs pre-infusion, Amino-Sugar, Galactose, & Non-Glucose Metabolism
[10] = plasma, 2-days after infusion vs pre-infusion, Bile Salt Metabolism
[11] = plasma, 2-days after infusion vs pre-infusion, Bioamines and Neurotransmitter Metabolism
[12] = plasma, 2-days after infusion vs pre-infusion, Branch Chain Amino Acid Metabolism
[13] = plasma, 2-days after infusion vs pre-infusion, Cardiolipin Metabolism
[14] = plasma, 2-days after infusion vs pre-infusion, Ceramide Metabolism

**Q.** What does the source list for Cc1ccc(C(=O)Nc2ccc(S(=O)(=O)O)c3cc(S(=O)(=O)O)cc(S(=O)(=O)O)c23)cc1NC(=O)c1cccc(NC(=O)Nc2cccc(C(=O)Nc3cc(C(=O)Nc4ccc(S(=O)(=O)O)c5cc(S(=O)(=O)O)cc(S(=O)(=O)O)c45)ccc3C)c2)c1 [Suramin, suramin]?
**A.** Increased [1]: 1; Observed Hits in the Top 61 Metabolites [1]: 1; Decreased [2]: 0; Fold Enrichment (Obs/Exp) [2]: 6.0; Fraction of Impact (VIP Score) Explained (% of 94.6) [2]: 4%; Impact (Sum VIP Score) [2]: 3.7; Increased [2]: 2; Observed Hits in the Top 48 Metabolites [2]: 2; Linear Ratio (Uridine, plasma, 6-weeks): 1.244; VIP Score (Uridine, plasma, 6-weeks): 1.764; Z Abs (Uridine, plasma, 6-weeks): 0.928; Z Score (Uridine, plasma, 6-weeks): 0.928; Decreased [3]: 0; Fold Enrichment (Obs/Exp) [3]: 4.5; Fraction of Impact (VIP Score) Explained (% of 94.6) [3]: 2%; Impact (Sum VIP Score) [3]: 2.0; Increased [3]: 1; Observed Hits in the Top 48 Metabolites [3]: 1; Decreased [4]: 1; Fold Enrichment (Obs/Exp) [4]: 2.4; Fraction of Impact (VIP Score) Explained (% of 119.7) [4]: 3%; Impact (Sum VIP Score) [4]: 3.1; Increased [4]: 0; Observed Hits in the Top 61 Metabolites [4]: 1; Linear Ratio [5]: 1.278; VIP Score [5]: 1.852; Z Abs [5]: 0.928; Z Score [5]: 0.928; metabolites significantly changed by suramin (total) (day 2): 61; Linear Ratio [6]: 2.027; VIP Score [6]: 1.888; Z Abs [6]: 0.901; Z Score [6]: 0.901; Linear Ratio [7]: 1.306; VIP Score [7]: 2.203; Z Abs [7]: 2.226; Z Score [7]: 2.226; 1-Methyl-adenine (1-MA) (plasma): increased; AICAR (plasma): increased; cAMP (plasma): decreased; dGDP (plasma): decreased; Linear Ratio, Alanine [8]: 1.193; VIP Score, Alanine [8]: 1.776; Z Abs, Alanine [8]: 1.066; Z Score, Alanine [8]: 1.066; Linear Ratio, Myoinositol [9]: 1.286; VIP Score, Myoinositol [9]: 1.645; Z Abs, Myoinositol [9]: 0.785; Z Score, Myoinositol [9]: 0.785; Linear Ratio, Chenodeoxyglycocholic acid [10]: 2.787; Linear Ratio, Glycocholic acid [10]: 2.344; Linear Ratio, Taurocholic acid [10]: 2.183; Linear Ratio, Taurodeoxycholic acid Pool [10]: 2.614; VIP Score, Chenodeoxyglycocholic acid [10]: 3.171; VIP Score, Glycocholic acid [10]: 3.090; VIP Score, Taurocholic acid [10]: 2.615; VIP Score, Taurodeoxycholic acid Pool [10]: 3.048; Z Abs, Chenodeoxyglycocholic acid [10]: 1.610; Z Abs, Glycocholic acid [10]: 2.020; Z Abs, Taurocholic acid [10]: 1.102; Z Abs, Taurodeoxycholic acid Pool [10]: 1.326; Z Score, Chenodeoxyglycocholic acid [10]: 1.610; Z Score, Glycocholic acid [10]: 2.020; Z Score, Taurocholic acid [10]: 1.102; Z Score, Taurodeoxycholic acid Pool [10]: 1.326; Linear Ratio, Dopamine [11]: 0.877; Linear Ratio, L-Glutamic acid [11]: 0.797; VIP Score, Dopamine [11]: 1.653; VIP Score, L-Glutamic acid [11]: 1.641; Z Abs, Dopamine [11]: 0.642; Z Abs, L-Glutamic acid [11]: 0.619; Z Score, Dopamine [11]: −0.642; Z Score, L-Glutamic acid [11]: −0.619; Linear Ratio, Isovalerylglycine [12]: 1.951; Linear Ratio, L-Isoleucine [12]: 1.094; Linear Ratio, L-Valine [12]: 1.165; Linear Ratio, Tiglylglycine [12]: 1.141; VIP Score, Isovalerylglycine [12]: 1.783; VIP Score, L-Isoleucine [12]: 2.136; VIP Score, L-Valine [12]: 1.808; VIP Score, Tiglylglycine [12]: 1.562; Z Abs, Isovalerylglycine [12]: 0.852; Z Abs, L-Isoleucine [12]: 0.815; Z Abs, L-Valine [12]: 0.749; Z Abs, Tiglylglycine [12]: 0.657; Z Score, Isovalerylglycine [12]: 0.852; Z Score, L-Isoleucine [12]: 0.815; Z Score, L-Valine [12]: 0.749; Z Score, Tiglylglycine [12]: 0.657; Linear Ratio, CL(18:2/18:2/18:2/18:1) [13]: 1.102; Linear Ratio, CL(18:2/18:2/18:2/18:2) [13]: 1.181; Linear Ratio, Ceramide(d18:1/18:2) [14]: 1.337; VIP Score, Ceramide(d18:1/18:2) [14]: 1.521
